# Measured values reported in patent publication US12091409B2, “Ether linked triazoles as NRF2 activators” (ASTEX THERAPEUTICS LIMITED, priority 2016, dated 2024).
# Counter-ions that a name gives are not always drawn.
# Test system: NQO1 specific enzyme activity in BEAS-2B cells (marker for NRF2 activation)
# Assay: BEAS-2B NQO1 MTT Assay
# Type: cell-based
# Conditions: Homo sapiens, BEAS-2B, 48 h, NQO1 specific activity induction, 48 hours with compound
# From the text: NAD(P)H:quinone oxidoreductase 1 (NQO1), also called DT diaphorase, is a homodimeric FAD-containing enzyme that catalyzes obligatory NAD(P)H-dependent two-electron reductions of quinones and protects cells against the toxic and neoplastic effects of free radicals and reactive oxygen species arising from one-electron reductions. The transcription of NQO1 is finely regulated by NRF2, and thus NQO1 activity is a good marker for NRF2 activation. On day one, frozen BEAS-2B cells (ATCC) were thawed in a water bath, counted, and re-suspended at a concentration of 250,000 cells/mL. Fifty microliters of cells were plated in 384 well black clear-bottomed plates. Plates were incubated at 37° C., 5% CO2 overnight. On day two, plates were centrifuged and 50 nL of compound or controls were added to the cells. Plates were then incubated at 37° C., 5% CO2 for 48 hours. On day four, medium was aspirated from the plate and crude cell lysates were made by adding 13 uL of 1× Cell Signaling Technologies lysis buffer with 1 Complete, Mini, EDTA-free Protease Inhibitor Tablet (Roche) for each 10 mL of lysis buffer. After lysis plates were incubated for 20 minutes at room temperature. Two microliters of lysate were removed for use in Cell Titer Glo assay (Promega) and MTT cocktail was prepared (Prochaska et. al. 1998) for measurement of NQO1 activity. Fifty microliters of MTT cocktail was added to each well, plate was centrifuged, and analyzed on an Envision plate reader (Perkin Elmer) using Absorbance 570 nm label for 30 minutes. Product formation was measured kinetically and the pEC50 of NQO1 specific activity induction was calculated by plotting the change in absorbance (Delta OD/min) versus the log of compound concentration followed by 3-parameter fitting.
# pEC50 is the negative log of the EC50.
# EC50s<1 nM (+++++), EC50s 1 nM-10 nM (++++), EC50s 10 nM-100 nM (+++), EC50s 100 nM-1 uM (++), EC50s 1 uM-10 uM (+); EC50s>10 uM (−), or were not determined (ND).
row,SMILES,EC50
1,"CC[C@@H]1CN(Cc2cc([C@H](OCc3cn(CC)nn3)C(C)(C)C(=O)O)ccc2C)S(=O)(=O)c2ccccc2O1 [Example 6, (S)-3-(3-(((R)-4-ethyl-1,1-dioxido-3,4-dihydro-2H-benzo[b][1,4,5]oxathiazepin-2-yl)methyl)-4-methylphenyl)-3-((1-ethyl-1H-1,2,3-triazol-4-yl)methoxy)-2,2-dimethylpropanoic acid]",1 to 10 nM
2,"COC(=O)C(C)(C)C(OCc1cn(Cc2cccc(-c3ccc(C(=O)O)cn3)c2)nn1)c1ccc(C)c(CN2C[C@@H](C)Oc3ccccc3S2(=O)=O)c1 (stereo partly drawn) [Example 59, 6-(3-((4-((3-Methoxy-2,2-dimethyl-1-(4-methyl-3-(((R)-4-methyl-1,1-dioxido-3,4-dihydro-2H-benzo[b][1,4,5]oxathiazepin-2-yl)methyl)phenyl)-3-oxopropoxy)methyl)-1H-1,2,3-triazol-1-yl)methyl)-phenyl)nicotinic acid]",1000 to 10000 nM
3,"Cc1ccc([C@@H](OCc2cn(C)nn2)C(C)(C)C(=O)O)cc1CN1Cc2ncccc2O[C@H](C(C)C)C1 [Example 109, (R)-3-(3-(((R)-2-isopropyl-2,3-dihydropyrido[2,3-b][1,4]-oxazepin-4(5H)-yl)methyl)-4-methylphenyl)-2,2-dimethyl-3-((1-methyl-1H-1,2,3-triazol-4-yl)methoxy)propanoic acid]",10 to 100 nM
4,"Cc1ccc(C(OCc2cn(CC3CCN(S(C)(=O)=O)CC3)nn2)C(C)(C)C(=O)O)cc1CN1C[C@@H](C)Oc2ccccc2S1(=O)=O (stereo partly drawn) [Example 36, 2,2-Dimethyl-3-(4-methyl-3-(((R)-4-methyl-1,1-dioxido-3,4-dihydro-2H-benzo[b][1,4,5]oxathiazepin-2-yl)methyl)phenyl)-3-((1-((1-(methylsulfonyl)piperidin-4-yl)methyl)-1H-1,2,3-triazol-4-yl)methoxy)propanoic acid]",10 to 100 nM
5,"CC[C@@H]1CN(Cc2cc([C@H](OCc3cn(CC)nn3)C(C)(C)C(=O)O)ccc2C)Cc2ncccc2O1 [Example 114, (S)-methyl 3-((1-ethyl-1H-1,2,3-triazol-4-yl)-methoxxy)-3-(3-(((R)-2-ethyl-2,3-dihydropyrido[2,3-f][1,4]oxazepin-4(5H)-yl)methyl)-4-methylphenyl)-2,2-dimethyl-propanoic acid, trifluoroacetate]",100 to 1000 nM
6,"CC[C@@H]1CN(Cc2cc(C(OCc3cn(Cc4cccc(C(=O)O)c4)nn3)C(C)(C)C(=O)O)ccc2C)S(=O)(=O)c2ccccc2O1 (stereo partly drawn) [Example 21, 3-((4-((2-Carboxy-1-(3-(((R)-4-ethyl-1,1-dioxido-3,4-dihydro-2H-benzo[b][1,4,5]oxathiazepin-2-yl)methyl)-4-methylphenyl)-2-methylpropoxy)methyl)-1H-1,2,3-triazol-1-yl)methyl)benzoic acid]",100 to 1000 nM
7,"Cc1ccc(C(OCc2cn(Cc3cccc(Cn4cc(CCC(=O)O)nn4)c3)nn2)C(C)(C)C(=O)O)cc1CN1C[C@@H](C)Oc2ccccc2S1(=O)=O (stereo partly drawn) [Example 45, 3-((1-(3-((4-(2-Carboxyethyl)-1H-1,2,3-triazol-1-yl)methyl)benzyl)-1H-1,2,3-triazol-4-yl)methoxy)-2,2-dimethyl-3-(4-methyl-3-(((R)-4-methyl-1,1-dioxido-3,4-dihydro-2H-benzo[b][1,4,5]oxathiazepin-2-yl)methyl)phenyl)propanoic acid]",100 to 1000 nM
8,"Cc1ccc(C(OCc2cn(Cc3cccc(Cn4cc(C(C)C)nn4)c3)nn2)C(C)(C)C(=O)O)cc1CN1C[C@@H](C)Oc2ccccc2S1(=O)=O (stereo partly drawn) [Example 37, 3-((1-(3-((4-Isopropyl-1H-1,2,3-triazol-1-yl)methyl)benzyl)-1H-1,2,3-triazol-4-yl)methoxy)-2,2-dimethyl-3-(4-methyl-3-(((R)-4-methyl-1,1-dioxido-3,4-dihydro-2H-benzo[b][1,4,5]oxathiazepin-2-yl)methyl)phenyl)propanoic acid]",1 to 10 nM
9,"CC[C@H]1Cc2cccnc2CN(Cc2cc([C@@H](OCc3cn(CC)nn3)C(C)(C)C(=O)O)ccc2C)C1 [Example 115, (R)-methyl 3-((1-ethyl-1H-1,2,3-triazol-4-yl)-methoxy)-3-(3-((S)-6-ethyl-6,7-dihydro-5H-pyrido[2,3-c]azepin-8(9H)-yl)methyl)-4-methylphenyl)-2,2-dimethyl-propanoic acid, trifluoroacetate]",1 to 10 nM
10,"Cc1ccc(C(OCc2cn(CC3CCN(C(=O)C4CCCCC4)CC3)nn2)C(C)(C)C(=O)O)cc1CN1C[C@@H](C)Oc2ccccc2S1(=O)=O (stereo partly drawn) [Example 30, 3-((1-((1-(Cyclohexanecarbonyl)piperidin-4-yl)methyl)-1H-1,2,3-triazol-4-yl)methoxy)-2,2-dimethyl-3-(4-methyl-3-(((R)-4-methyl-1,1-dioxido-3,4-dihydro-2H-benzo[b][1,4,5]oxathiazepin-2-yl)methyl)phenyl)propanoic acid]",1 to 10 nM
11,"CCn1cc(CO[C@@H](c2ccc(C)c(CN3C[C@H](C)Cc4ncccc4S3(=O)=O)c2)C(C)(C)C(=O)O)nn1 [Example 64, (3S)-((1-ethyl-1H-1,2,3-triazol-4-yl)methoxy)-2,2-dimethyl-3-(4-methyl-3-(((R)-4-methyl-1,1-dioxido-4,5-dihydropyrido[2,3-f][1,2]thiazepin-2(3H)-yl)methyl)phenyl)propanoic acid]",100 to 1000 nM
12,"CCn1cc(COC(c2ccc(C)c(CN(Cc3ccccc3)S(=O)(=O)c3ccccc3)c2)C(C)(C)C(=O)O)nn1 (stereo not drawn) [Example 99, 3-(3-((N-benzylphenylsulfonamido)methyl)-4-methylphenyl)-3-((1-ethyl-1H-1,2,3-triazol-4-yl)methoxy)-2,2-dimethylpropanoic acid]",10 to 100 nM
13,"Cc1ccc(C(OCc2c[nH]nn2)C(C)(C)C(=O)O)cc1CN1C[C@@H](C)Oc2ccccc2S1(=O)=O (stereo partly drawn) [Example 101, 3-((1H-1,2,3-triazol-4-yl)methoxy)-2,2-dimethyl-3-(4-methyl-3-(((R)-4-methyl-1,1-dioxido-3,4-dihydro-2H-benzo[b][1,4,5]oxathiazepin-2-yl)methyl)phenyl)propanoic acid]",10 to 100 nM
14,CCc1cn(Cc2cccc(Cn3cc(COC(c4ccc(C)c(CN5C[C@@H](C)Oc6ccccc6S5(=O)=O)c4)C(C)(C)C(=O)O)nn3)c2)nn1 (stereo partly drawn) [Example 38],10 to 100 nM
15,"Cc1ccc(C(OCc2cn(CC3CCN(C(N)=O)CC3)nn2)C(C)(C)C(=O)O)cc1CN1C[C@@H](C)Oc2ccccc2S1(=O)=O (stereo partly drawn) [Example 100, 3-((1-((1-Carbamoylpiperidin-4-yl)methyl)-1H-1,2,3-triazol-4-yl)methoxy)-2,2-dimethyl-3-(4-methyl-3-(((R)-4-methyl-1,1-dioxido-3,4-dihydro-2H-benzo[b][1,4,5]oxathiazepin-2-yl)methyl)phenyl)propanoic acid]",100 to 1000 nM
16,"CCCn1cc(COC(c2ccc(C)c(CN3C[C@@H](CC)Oc4ccccc4S3(=O)=O)c2)C(C)(C)C(=O)O)nn1 (stereo partly drawn) [Example 4, 3-(3-(((R)-4-ethyl-1,1-dioxido-3,4-dihydro-2H-benzo[b][1,4,5]oxathiazepin-2-yl)methyl)-4-methylphenyl)-2,2-dimethyl-3-((1-propyl-1H-1,2,3-triazol-4-yl)methoxy)propanoic acid]",< 1 nM
17,CCn1cc(CO[C@H](c2ccc(C)c(CN3C[C@@H](C)Cc4ccccc4S3(=O)=O)c2)C(C)(C)C(=O)O)nn1 [Example 84],< 1 nM
18,"Cc1ccc(C(OCc2cn(Cc3cccc(CN=[N+]=[N-])c3)nn2)C(C)(C)C(=O)O)cc1CN1C[C@@H](C)Oc2ccccc2S1(=O)=O (stereo partly drawn) [Example 3, 3-((1-(3-(Azidomethyl)benzyl)-1H-1,2,3-triazol-4-yl)methoxy)-2,2-dimethyl-3-(4-methyl-3-(((R)-4-methyl-1,1-dioxido-3,4-dihydro-2H-benzo[b][1,4,5]oxathiazepin-2-yl)methyl)phenyl)propanoic acid]",< 1 nM
19,"Cc1ccc([C@H](OCc2cn(Cc3ccc(Cn4cc(CO[C@@H](c5ccc(C)c(CN6C[C@@H](C)Oc7ccccc7S6(=O)=O)c5)C(C)(C)C(=O)O)nn4)cc3)nn2)C(C)(C)C(=O)O)cc1CN1C[C@@H](C)Oc2ccccc2S1(=O)=O (relative stereo) [Example 46, (R,rel-(3S,3'S))-3,3′-(((1,1′-(1,4-phenylenebis(methylene))bis(1H-1,2,3-triazole-4,1-diyl))bis(methylene))bis(oxy))bis(2,2-dimethyl-3-(4-methyl-3-(((R)-4-methyl-1,1-dioxido-3,4-dihydro-2H-benzo[b][1,4,5]oxathiazepin-2-yl)methyl)phenyl)propanoic acid)]",10 to 100 nM

# Same assay, conditions: NQO1 specific activity induction, 48 hours with compound
row,SMILES,EC50
1,"Cc1ccc(C(OCc2cn(CC(C)C)nn2)C(C)(C)C(=O)O)cc1CN1C[C@@H](C)Oc2ccccc2S1(=O)=O (single isomer, unassigned) [Example 13]",1 to 10 nM
2,"Cc1ccc(C(OCc2cn(C3COC3)nn2)C(C)(C)C(=O)O)cc1CN1C[C@@H](C)Cc2ccncc2S1(=O)=O (single isomer, unassigned) [Example 103]",1 to 10 nM
